This note sets out measurements from patent US3966739A, “Pyrrole-carboxylic acids lumilysergol esters” (Societa' Farmaceutici Italia S.p.A., priority 1971, dated 1976).

Assay [1] relates to lethal effects of adrenaline. The assay is described as follows: adrenolytic activity in vivo in the rat (reduction of lethal effects of adrenaline). An excerpt: The same activity, in vivo, has been determined in the rat. Table II reports the doses ID50 (in mg/kg) capable of reducing 50% of the lethal effects of adrenaline by intravenous administration (i.v.) and oral administration (os) of the compounds under examination.

For assay [2], the system named is spasmogen action of adrenaline on isolated seminal small bladder. Put plainly: adrenolytic activity on isolated seminal small bladder of guinea-pig (inhibition of spasmogen action of adrenaline). The format is cell-based. The note with it: Cavia porcellus; isolated seminal small bladder of guinea-pig suspended in physiologic solution; read-out: concentrations inhibiting 50% of the spasmogen action of adrenaline (IC50). The text has this: The adrenolytic activity of the compounds of the invention has been tested by employing dihydroergotamine as a comparison compound. Particularly, it has been determined on the isolated seminal small bladder of guinea-pig suspended in physiologic solution.
Table I reports the concentrations inhibiting 50% of the spasmogen action of adrenaline (IC50).

Where [3] appears, read: intravenous administration (i.v.), read-out: ID50 (i.v.): dose reducing 50% of the lethal effects of adrenaline.
[4] abbreviates: oral administration (os), read-out: ID50 (os): dose reducing 50% of the lethal effects of adrenaline.

Each structure is given as a SMILES string. ≈ marks a conversion by molar mass, not a printed value. Counter-ions that a name gives are not always drawn. Like-named read-outs stand apart in the source and are kept apart here.

`CO[C@]12C[C@@H](COC(=O)c3ccc[nH]3)CN(C)[C@@H]1Cc1cn(C)c3cccc2c13` [1,6-Dimethyl-8β-(2'-pyrroyloxymethyl)-10α-methoxyergoline]: the results for the ED50 in assay [1] (setting [3]) and in assay [1] (setting [4]) were 0.005 mg/kg and 0.5 mg/kg, respectively. In addition, in assay [2], the IC50 is 0.005 µg/mL (≈ 0.0127 µM).
For the molecule `CO[C@]12C[C@@H](COC(=O)c3[nH]c(C)cc3C)CN(C)[C@@H]1Cc1cn(C)c3cccc2c13` [1,6-Dimethyl-8β-(3',5'-dimethyl-2'-pyrroyloxymethyl)-10α-methoxyergoline], the ED50 in assay [1] (setting [3]) was 0.065 mg/kg; in assay [1] (setting [4]) it was 0.1 mg/kg. Moreover, the IC50 in assay [2] stood at 0.05 µg/mL (≈ 0.119 µM).
With `CO[C@]12C[C@@H](COC(=O)c3cc[nH]c3)CN(C)[C@@H]1Cc1cn(C)c3cccc2c13` [1,6-Dimethyl-8β-(3'-pyrroyloxymethyl)-10α-methoxyergoline], the ED50 worked out at 0.05 mg/kg in assay [1] (setting [3]) and 0.5 mg/kg in assay [1] (setting [4]). Besides, in assay [2], the IC50 was 0.005 µg/mL (≈ 0.0127 µM).
As to `CO[C@]12C[C@@H](COC(=O)c3c(C)cc(C)n3C)CN(C)[C@@H]1Cc1cn(C)c3cccc2c13` [1,6-Dimethyl-8β-[1', 3',5'-trimethyl-2'-pyrroyloxymethyl]-10α-methoxyergoline maleate], the ED50 was 0.25 mg/kg in assay [1] (setting [3]) and 0.2 mg/kg in assay [1] (setting [4]). For the same molecule, in assay [2], the IC50 was determined as 0.01 µg/mL.
Regarding `CO[C@]12C[C@@H](COC(=O)c3c(C)c[nH]c3C)CN(C)[C@@H]1Cc1cn(C)c3cccc2c13` [1,6-Dimethyl-8β-[2', 4'-dimethyl-3'-pyrroyloxymethyl]-10α-methoxyergoline], the ED50 turned out to be 0.1 mg/kg in assay [1] (setting [3]) and 0.7 mg/kg in assay [1] (setting [4]). The IC50 in assay [2] came to 0.07 µg/mL (≈ 0.166 µM).
With `CO[C@]12C[C@@H](COC(=O)c3cc[nH]c3C)CN(C)[C@@H]1Cc1cn(C)c3cccc2c13` [1,6-Dimethyl-8β-[2'-methyl-3'-pyrroyloxymethyl]-10α-methoxyergoline], the ED50 in assay [1] (setting [3]) came to 0.05 mg/kg; in assay [1] (setting [4]), 0.25 mg/kg. The IC50 in assay [2] stood at 0.05 µg/mL (≈ 0.123 µM).
Turning to `CO[C@]12C[C@@H](COC(=O)c3[nH]c(C)c(Br)c3C)CN(C)[C@@H]1Cc1cn(C)c3cccc2c13` [1,6-Dimethyl-8β-[3', 5'-dimethyl-4'-bromo-2'-pyrroyloxymethyl]-10α-methoxyergoline], the ED50 in assay [1] (setting [3]) was greater than 1 mg/kg; in assay [1] (setting [4]) it was 0.5 mg/kg. In assay [2], the IC50 came out at 0.1 µg/mL (≈ 0.2 µM).
Turning to `CCOC(=O)c1c(C)[nH]c(C(=O)OC[C@H]2CN(C)[C@@H]3Cc4cn(C)c5cccc(c45)[C@@]3(OC)C2)c1C` [1,6-Dimethyl-8β-[3', 5'-dimethyl-4'-carbethoxy-2'-pyrroyloxymethyl]-10α-methoxyergoline], the ED50 is greater than 0.1 mg/kg in assay [1] (setting [3]) and 2.5 mg/kg in assay [1] (setting [4]). Moreover, the IC50 in assay [2] stood at 1 µg/mL (≈ 2.03 µM).
For `COc1c[nH]cc1C(=O)OC[C@H]1CN(C)[C@@H]2Cc3cn(C)c4cccc(c34)[C@@]2(OC)C1` [1,6-Dimethyl-8β-[4'-methoxy-3'-pyrroyloxymethyl]-10α-methoxyergoline], the results for the ED50 in assay [1] (setting [3]) and in assay [1] (setting [4]) were 0.075 mg/kg and 0.3 mg/kg, respectively. The IC50 in assay [2] came to 0.1 µg/mL (≈ 0.236 µM).
On to `CO[C@]12C[C@@H](COC(=O)c3cccn3C)CN(C)[C@@H]1Cc1cn(C)c3cccc2c13` [1,6-dimethyl-8β-[2'-(N-methyl)-pyrroyloxymethyl]-10α-methoxyergoline], for which the results for the ED50 in assay [1] (setting [3]) and in assay [1] (setting [4]) were 0.025 mg/kg and 1 mg/kg, respectively. For the same molecule, in assay [2], the IC50 was 0.005 µg/mL (≈ 0.0123 µM).
On to `CN1C[C@H](C(=O)N[C@]2(C)O[C@@]3(O)[C@@H]4CCCN4C(=O)[C@H](Cc4ccccc4)N3C2=O)C[C@@H]2c3cccc4[nH]cc(c34)C[C@H]21` [Dihydroergotamine, reference compound], for which the figures for the ED50 in assay [1] (setting [3]) and in assay [1] (setting [4]) were 0.08 mg/kg and 15 mg/kg, respectively. In addition, the IC50 in assay [2] is 0.015 µg/mL (≈ 0.0257 µM).
